Laboratory results as given in patent US8691815B2, “Substituted oxindole derivatives, drugs containing said derivatives and the use thereof” (AbbVie Deutschland GmbH & Co. KG, priority 2005, dated 2014).
Counter-ions that a name gives are not always drawn.

Biological target: T1, human vasopressin V1b receptor (Homo sapiens, UniProt P47901)
T1 construct: expressed in transfected cells; host or cells: CHO-K1 (cell line hV1b-3H2_CHO), membrane preparation
T1 sequence (P47901 1-424): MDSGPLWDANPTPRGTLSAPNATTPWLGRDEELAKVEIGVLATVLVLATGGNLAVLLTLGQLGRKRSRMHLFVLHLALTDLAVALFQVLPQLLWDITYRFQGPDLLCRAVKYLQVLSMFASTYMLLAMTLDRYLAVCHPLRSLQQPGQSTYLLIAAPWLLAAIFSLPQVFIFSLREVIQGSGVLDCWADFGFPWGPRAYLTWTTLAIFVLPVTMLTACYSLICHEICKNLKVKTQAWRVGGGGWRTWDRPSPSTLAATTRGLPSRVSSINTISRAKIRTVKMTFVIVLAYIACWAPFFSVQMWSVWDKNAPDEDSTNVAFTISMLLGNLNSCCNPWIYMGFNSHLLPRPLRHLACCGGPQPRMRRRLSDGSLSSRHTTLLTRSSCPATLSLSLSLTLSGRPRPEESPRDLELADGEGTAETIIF
Test: Vasopressin V1b receptor binding assay
Conditions: membranes from CHO-K1 cells with stably expressed human V1b receptors, displacement of 1.5 nM 3H-AVP
Procedure: Vasopressin V1b Receptor Binding Assay:
The test substances were dissolved in a concentration of 10^−2 M in DMSO (dimethyl sulfoxide) and further diluted to 5×10^−4 M to 5×10^−9 M in DMSO. This series of DMSO predilutions was diluted 1:10 with assay buffer. The substance concentration was again diluted 1:5 in the assay mixture (2% DMSO in the mixture).
The membrane pellet was again homogenized and centrifuged as described and then taken up in 50 mM Tris-HCl, pH 7.4, homogenized and stored in aliquots frozen in liquid nitrogen at −190° C.
The incubation buffer was: 50 mM Tris, 10 mM MgCl2, 0.1% BSA, pH 7.4.
The nonspecific binding was determined with 1 uM AVP (Bachem # H1780). All determinations were carried out as triplicate determinations. After incubation (60 minutes at room temperature), the free radioligand was removed by vacuum filtration (Skatron cell harvester 7000) through Whatman GF/B glass fiber filter mats, and the filters were transferred into scintillation vials. The liquid scintillation measurement took place in a Tricarb model 2000 or 2200CA instrument (Packard). Conversion of the measured cpm into dpm was carried out with the aid of a standard quench series.
The binding parameters were calculated by nonlinear regression in SAS.

Row | Compound | Ki [nM]
1 | COc1ccc(S(=O)(=O)N2C(=O)C(c3ccc(CN4CCN(C)CC4)cc3OC)(N3CCC[C@H]3C(=O)N(C)C)c3cc(Cl)ccc32)c(OC)c1 (stereo partly drawn) [Example 9, (S)-1-{5-Chloro-1-(2,4-dimethoxybenzenesulfonyl)-3-[2-methoxy-4-(4-methyl-piperazin-1-ylmethyl)phenyl]-2-oxo-2,3-dihydro-1H-indol-3-yl}pyrrolidine-2-dimethylcarboxamide] | 1 to 10
2 | COc1cc(CN2CCCC2)ccc1C1(N2CCC[C@H]2C(=O)N(C)C)C(=O)N(S(=O)(=O)c2ccc(F)cc2)c2ccc(Cl)cc21 (stereo partly drawn) [Example 3, (S)-1-[5-Chloro-1-(4-fluorobenzenesulfonyl)-3-(2-methoxy-4-pyrrolidin-1-ylmethyl-phenyl)-2-oxo-2,3-dihydro-1H-indol-3-yl]pyrrolidine-2-dimethylcarboxamide, trifluoroacetic acid salt] | 1 to 10
3 | COc1cc(CN(C)C)ccc1C1(N2CCC[C@H]2C(=O)N(C)C)C(=O)N(S(=O)(=O)c2ccc(C#N)cc2)c2ccc(Cl)cc21 (stereo partly drawn) [Example 72, (S)-1-[5-Chloro-1-(4-cyanobenzenesulfonyl)-3-(4-dimethylaminomethyl-2-methoxy-phenyl)-2-oxo-2,3-dihydro-1H-indol-3-yl]pyrrolidine-2-dimethylcarboxamide, trifluoroacetic acid salt] | 1 to 10
4 | (S)-1-[3-(4-Aminomethyl-2-methoxyphenyl)-5-chloro-1-(4-cyanobenzenesulfonyl)-2-oxo-2,3-dihydro-1H-indol-3-yl]pyrrolidine-2-dimethylcarboxamide, trifluoroacetic acid salt [Example 76] | 1 to 10
5 | COc1ccc(S(=O)(=O)N2C(=O)C(c3cc(CN(C)CCN(C)C)ccc3OC)(N3CCC[C@H]3C(=O)N(C)C)c3cc(Cl)ccc32)cc1 (stereo partly drawn) [Example 22, (S)-1-[5-Chloro-3-(5-{[(2-dimethylaminoethyl)methylamino]methyl}-2-methoxy-phenyl)-1-(4-methoxybenzenesulfonyl)-2-oxo-2,3-dihydro-1H-indol-3-yl]pyrrolidine-2-dimethylcarboxamide, trifluoroacetic acid salt] | < 1
6 | COc1cc(CN2CCOCC2)ccc1C1(N2CCC[C@H]2C(=O)N(C)C)C(=O)N(S(=O)(=O)c2ccc(C#N)cc2)c2ccc(Cl)cc21 (stereo partly drawn) [Example 81, (S)-1-[5-Chloro-1-(4-cyanobenzenesulfonyl)-3-(2-methoxy-4-morpholin-4-ylmethyl-phenyl)-2-oxo-2,3-dihydro-1H-indol-3-yl]pyrrolidine-2-dimethylcarboxamide, trifluoroacetic acid salt] | 1 to 10
7 | COc1ccc(S(=O)(=O)N2C(=O)C(c3ccc(CN4CCCC4)cc3)(N3C[C@H](O)C[C@H]3C(=O)N(C)C)c3cc(Cl)ccc32)c(OC)c1 (stereo partly drawn) [Example 6, (2S,4R)-1-[5-Chloro-1-(2,4-dimethoxybenzenesulfonyl)-2-oxo-3-(4-pyrrolidin-1-yl-methylphenyl)-2,3-dihydro-1H-indol-3-yl]-4-hydroxypyrrolidine-2-dimethylcarboxamide] | 10 to 100
8 | COc1ccc(S(=O)(=O)N2C(=O)C(c3ccc(CN(C)C)cc3OC)(N3CCC[C@H]3C(=O)N(C)C)c3cc(Cl)ccc32)c(OC)c1 (stereo partly drawn) [Example 7, (S)-1-[5-Chloro-1-(2,4-dimethoxybenzenesulfonyl)-3-(4-dimethylaminomethyl-2-methoxyphenyl)-2-oxo-2,3-dihydro-1H-indol-3-yl]-pyrrolidin-2-dimethylcarboxamide] | 1 to 10
9 | COc1ccc(S(=O)(=O)N2C(=O)C(c3cc(CN(C)CCCN(C)C)ccc3OC)(N3CCC[C@H]3C(=O)N(C)C)c3cc(Cl)ccc32)c(OC)c1 (stereo partly drawn) [Example 30, (S)-1-[5-Chloro-1-(2,4-dimethoxybenzenesulfonyl)-3-(5-{[(3-dimethylaminopropyl)-methylamino]methyl}-2-methoxyphenyl)-2-oxo-2,3-dihydro-1H-indol-3-yl]pyrrolidine-2-dimethylcarboxamide, trifluoroacetic acid salt] | < 1
10 | COCCN(C)Cc1ccc(C2(N3CCC[C@H]3C(=O)N(C)C)C(=O)N(S(=O)(=O)c3ccc(OC)cc3)c3ccc(Cl)cc32)c(OC)c1 (stereo partly drawn) [Example 89, (S)-1-[5-Chloro-1-(4-methoxybenzenesulfonyl)-3-(2-methoxy-4-{[(2-methoxyethyl)-methylamino]methyl}phenyl)-2-oxo-2,3-dihydro-1H-indol-3-yl]pyrrolidine-2-dimethyl-carboxamide, trifluoroacetic acid salt] | < 1
11 | COc1ccc(S(=O)(=O)N2C(=O)C(c3cc(CN4CCCCC4)ccc3OC)(N3CCC[C@H]3C(=O)N(C)C)c3cc(Cl)ccc32)cc1 (stereo partly drawn) [Example 19, (S)-1-[5-Chloro-1-(4-methoxybenzenesulfonyl)-3-(2-methoxy-5-piperidin-1-ylmethyl-phenyl)-2-oxo-2,3-dihydro-1H-indol-3-yl]pyrrolidine-2-dimethylcarboxamide, trifluoroacetic acid salt] | < 1
12 | COc1ccc(S(=O)(=O)N2C(=O)C(c3cc(CN4CCN(C)CC4)ccc3OC)(N3CCC[C@H]3C(=O)N(C)C)c3cc(Cl)ccc32)c(OC)c1 (stereo partly drawn) [Example 27, (S)-1-{5-Chloro-1-(2,4-dimethoxybenzenesulfonyl)-3-[2-methoxy-5-(4-methyl-piperazin-1-ylmethyl)phenyl]-2-oxo-2,3-dihydro-1H-indol-3-yl}pyrrolidine-2-dimethylcarboxamide, trifluoroacetic acid salt] | < 1
13 | COc1ccc(S(=O)(=O)N2C(=O)C(c3ccc(CN4CCCC4)cc3OC)(N(C)[C@@H](C)C(=O)N(C)C)c3cc(Cl)ccc32)c(OC)c1 (stereo partly drawn) [Example 14, (S)-2-{[5-Chloro-1-(2,4-dimethoxybenzenesulfonyl)-3-(2-methoxy-4-pyrrolidin-1-yl-methylphenyl)-2-oxo-2,3-dihydro-1H-indol-3-yl]methylamino}-N,N-dimethyl-propionamide] | 1 to 10
14 | (S)-2-{[5-Chloro-1-(2,4-dimethoxybenzenesulfonyl)-3-(4-dimethylaminomethyl-2-methoxyphenyl)-2-oxo-2,3-dihydro-1H-indol-3-yl]methylamino}-N,N-dimethyl-propionamide [Example 13] | 1 to 10
15 | COc1cc(CN2CCNCC2)ccc1C1(N2CCC[C@H]2C(=O)N(C)C)C(=O)N(S(=O)(=O)c2ccc(F)cc2)c2ccc(Cl)cc21 (stereo partly drawn) [Example 78, (S)-1-[5-Chloro-1-(4-fluorobenzenesulfonyl)-3-(2-methoxy-4-piperazin-1-ylmethyl-phenyl)-2-oxo-2,3-dihydro-1H-indol-3-yl]pyrrolidine-2-dimethylcarboxamide, trifluoroacetic acid salt] | < 1
16 | COc1ccc(S(=O)(=O)N2C(=O)C(c3ccc(CN4CCNCC4)cc3OC)(N3CCC[C@H]3C(=O)N(C)C)c3cc(Cl)ccc32)cc1 (stereo partly drawn) [Example 79, (S)-1-[5-Chloro-1-(4-methoxybenzenesulfonyl)-3-(2-methoxy-4-piperazin-1-yl-methylphenyl)-2-oxo-2,3-dihydro-1H-indol-3-yl]pyrrolidine-2-dimethylcarboxamide, trifluoroacetic acid salt] | < 1
17 | COc1ccc(S(=O)(=O)N2C(=O)C(c3ccc(CN4CCN(C)CC4)cc3OC)(N3CCC[C@H]3C(=O)N(C)C)c3ccccc32)cc1 (stereo partly drawn) [Example 92, (S)-1-{1-(4-Methoxybenzenesulfonyl)-3-[2-methoxy-4-(4-methylpiperazin-1-yl-methyl)phenyl]-2-oxo-2,3-dihydro-1H-indol-3-yl}-pyrrolidine-2-carboxylic acid dimethylamide, trifluoroacetic acid salt] | 1 to 10
